Test results as given in article PMC10101059, “Rational Design of Stapled Antimicrobial Peptides to Enhance Stability and In Vivo Potency against Polymicrobial Sepsis” (Microbiology Spectrum, 2023).
Converted amounts (≈) assume the structure as drawn. Like-named read-outs stand apart in the source and are kept apart here.

Tests used:
MDR A. baumannii 2998 [1] = experiment: microbe, parasite or virus in culture; type: cell-based, Acinetobacter baumannii; settings: for MBC: read-out: MBC
Method in brief: (§1)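 Broth microdilution per modified NCCLS protocol: 5 × 10^5 CFU/mL bacteria exposed to serial peptide concentrations, 37 ± 2°C for 16 to 20 h. MIC = lowest concentration giving clear wells; clear wells plated on Mueller-Hinton agar overnight at 37 ± 2°C, MBC = lowest concentration with no growth. Serum sensitivity tested in medium with 50% human serum.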

MDR A. baumannii 921 [2] = experiment: microbe, parasite or virus in culture; type: cell-based, Acinetobacter baumannii
Method in brief: as §1

A. baumannii [3] = experiment: Bacterial killing kinetics; type: cell-based, Acinetobacter baumannii; settings: within 8 h, at respective MBC
Procedure: Mid-log-phase A. baumannii (5 × 10^5 CFU/mL) bacterial cells were treated with the test candidates at appropriate bactericidal concentrations, followed by incubation at 37°C. The treated bacterial cells were plated in MHA to determine the bacterial killing rate as a function of time ([52]).

A. baumannii [4] = experiment: Serial passage (induced resistance) assay; type: cell-based, Acinetobacter baumannii; settings: after serial passage for 15 cycles
Procedure: The experimental procedure was performed according to the MIC protocol for A. baumannii described above. Subsequently, bacterial samples from sub-MIC wells were passaged, and the MIC was estimated again. This process was repeated for 15 cycles, and the change in MIC over […] was reported ([23]).

A. baumannii biofilm = experiment: Biofilm inhibition assay; type: cell-based, Acinetobacter baumannii; settings: 0.5× to 4× MIC
Procedure: (i) Biofilm inhibition assay. Fifty μL of 2 × 10^6 CFU/mL A. baumannii bacterial suspension was added to a 96-well plate. Then, 50 μL of peptide/drug (various concentrations) was added, and the plate was incubated for 24 h. The residual solution was removed, and wells were washed, followed by treatment with 100% methanol for 15 min at room temperature. The methanol was then removed, and the wells were allowed to dry at room temperature. Next, the wells were incubated with 100 μL of 0.02% crystal violet for 30 min. After the incubation, the wells were washed with distilled water and dried for an appropriate length of time. Finally, 100 μL of 33% acetic acid was added to the wells for 1 h, followed by reading the absorbance at 595 nm ([55]).

MDR A. baumannii 1019 = experiment: microbe, parasite or virus in culture; type: cell-based, Acinetobacter baumannii
Procedure: (§2) The FICI was measured using a standard checkerboard microdilution assay ([57]). Two-fold dilutions of antibiotics were made across the x axis, and two-fold peptide dilutions were made across the y axis. Next, bacteria were added at 5 × 10^5 CFU/well (A. baumannii), followed by incubation at 37 ± 2°C for 16 to 20 h. FIC indices were calculated according to the following equations: FICI = FIC1 + FIC2; FIC1 = (MIC12 combined)/MIC1; FIC2 = (MIC12 combined)/MIC2. The combined efficacy was estimated as follows: FICI ≤ 0.5, synergistic; 0.5 to 1, additive; 1 to 2, indifferent; ≥2, antagonistic.

MDR A. baumannii 14B001 = experiment: microbe, parasite or virus in culture; type: cell-based, Acinetobacter baumannii
Procedure: as §2

MDR A. baumannii 1607 = experiment: microbe, parasite or virus in culture; type: cell-based, Acinetobacter baumannii
Procedure: as §2

MDR A. baumannii 1702 = experiment: microbe, parasite or virus in culture; type: cell-based, Acinetobacter baumannii
Procedure: as §2

MDR A. baumannii 2962 = experiment: microbe, parasite or virus in culture; type: cell-based, Acinetobacter baumannii
Procedure: as §2

MDR A. baumannii 2982 = experiment: microbe, parasite or virus in culture; type: cell-based, Acinetobacter baumannii
Procedure: as §2

MDR A. baumannii 921 [5] = experiment: microbe, parasite or virus in culture; type: cell-based, Acinetobacter baumannii; remark: listed apart in the source
Procedure: as §2

MDR A. baumannii 1033 = experiment: Checkerboard microdilution assay (FICI); type: cell-based, Acinetobacter baumannii
Procedure: as §2

MDR A. baumannii 2088 = experiment: Checkerboard microdilution assay (FICI); type: cell-based, Acinetobacter baumannii
Procedure: as §2

MDR A. baumannii 2997 = experiment: Checkerboard microdilution assay (FICI); type: cell-based, Acinetobacter baumannii
Procedure: as §2

MDR A. baumannii 2998 [6] = experiment: Checkerboard microdilution assay (FICI); type: cell-based, Acinetobacter baumannii
Procedure: as §2

MDR A. baumannii 3618 = experiment: Checkerboard microdilution assay (FICI); type: cell-based, Acinetobacter baumannii
Procedure: as §2

NDM1 K. pneumoniae = experiment: microbe, parasite or virus in culture; type: cell-based, Klebsiella pneumoniae
E. aerogenes = experiment: microbe, parasite or virus in culture; type: cell-based, Enterobacter aerogenes
S enterica = experiment: Checkerboard microdilution assay (FICI); type: cell-based, Salmonella enterica
P. aeruginosae = experiment: microbe, parasite or virus in culture; type: cell-based, Pseudomonas aeruginosa
[7] = Acinetobacter baumannii, MHB medium
[8] = HS, MH medium containing 50% human serum
[9] = Acinetobacter baumannii, read-out: Single drug treatment MIC
[10] = MIC of each agent in combination, TP4-3 and M

## C[C@@H](O)[C@H]1C(=O)N2C(C(=O)O)=C(S[C@@H]3CN[C@H](C(=O)N(C)C)C3)[C@H](C)[C@H]12 [Meropenem]
MDR A. baumannii 2998 [1]; [7]
  MIC: > 25 µM
  MBC: > 25 µM
MDR A. baumannii 2998 [1]; [8]
  MIC: >25 µM
  MBC: >25 µM
MDR A. baumannii 921 [2]; [7]
  MBC: > 25 µM
  MIC: > 25 µM
MDR A. baumannii 921 [2]; [8]
  MBC: >25 µM
  MIC: >25 µM
A. baumannii [3]
  reduction of the bacterial population: approximately half
A. baumannii [4]
  net increase in the MIC: 53 fold
A. baumannii biofilm
  inhibition of biofilm (biomass) formation: substantial inhibition of biomass formation
MDR A. baumannii 1019; [9]
  MIC: 50 µM
MDR A. baumannii 1019; [10]
  TP4-3 and meropenem combined MIC: 6.25 µM
MDR A. baumannii 14B001; [9]
  MIC: 800 µM
MDR A. baumannii 14B001; [10]
  TP4-3 and meropenem combined MIC: 400 µM
MDR A. baumannii 1607; [9]
  MIC: 100 µM
MDR A. baumannii 1607; [10]
  TP4-3 and meropenem combined MIC: 12.5 µM
MDR A. baumannii 1702; [9]
  MIC: 25 to 50 µM
MDR A. baumannii 1702; [10]
  TP4-3 and meropenem combined MIC: 12.5 µM
MDR A. baumannii 2962; [9]
  MIC: 100 µM
MDR A. baumannii 2962; [10]
  TP4-3 and meropenem combined MIC: 25 µM
MDR A. baumannii 2982; [9]
  MIC: 400 µM
MDR A. baumannii 2982; [10]
  TP4-3 and meropenem combined MIC: 200 µM
MDR A. baumannii 921 [5]; [9]
  MIC: 400 µM
MDR A. baumannii 921 [5]; [10]
  TP4-3 and meropenem combined MIC: 100 µM
MDR A. baumannii 1033; [9]
  MIC: 200 µM
MDR A. baumannii 1033; [10]
  TP4-3 and meropenem combined MIC: 50 µM
MDR A. baumannii 2088; [9]
  MIC: 400 µM
MDR A. baumannii 2088; [10]
  TP4-3 and meropenem combined MIC: 100 µM
MDR A. baumannii 2997; [9]
  MIC: 200 µM
MDR A. baumannii 2997; [10]
  TP4-3 and meropenem combined MIC: 12.5 µM
MDR A. baumannii 2998 [6]; [9]
  MIC: 400 µM
MDR A. baumannii 2998 [6]; [10]
  TP4-3 and meropenem combined MIC: 50 µM
MDR A. baumannii 3618; [9]
  MIC: 200 µM
MDR A. baumannii 3618; [10]
  TP4-3 and meropenem combined MIC: 25 µM
NDM1 K. pneumoniae; Klebsiella pneumoniae, read-out: Single drug treatment MIC
  MIC: 400 µM (≈ 153 µg/mL)
NDM1 K. pneumoniae; [10]
  TP4-3 and meropenem combined MIC: 200 µM
E. aerogenes; Klebsiella aerogenes, read-out: Single drug treatment MIC
  MIC: 0.39 µM (≈ 0.15 µg/mL)
E. aerogenes; [10]
  TP4-3 and meropenem combined MIC: 0.097 µM
S enterica; [10]
  TP4-3 and meropenem combined MIC: 0.19 µM
S enterica; Salmonella enterica, read-out: Single drug treatment MIC
  MIC: 6.25 µM
P. aeruginosae; [10]
  TP4-3 and meropenem combined MIC: 0.78 µM
P. aeruginosae; Pseudomonas aeruginosa, read-out: Single drug treatment MIC
  MIC: 0.39 µM (≈ 0.15 µg/mL)
